Test results taken from patent US10316050B2, “PT (IV) complexes containing 4,4′-disubstituted-2,2′-bipyridyl and their use in cancer therapy” (THE BOARD OF REGENTS OF THE NEVADA SYSTEM OF HIGHER …, priority 2014, dated 2019).
Where two headings read alike, the source gives them in different places.

Key:
[1] = test system: T-47D breast cancer cells; experiment: MTS cell viability assay, T-47D; type: cell-based, human
Description: (§1) Human breast (HCC38, MCF-7, MDA-MB-231, SK-BR-3, T-47D, and ZR-75-1), lung (A549 and H520), and prostate (DU145 and PC-3) cancer cell lines were obtained from American Culture Type Collection (ATCC). The HCC38, MCF-7, MDA-MB-231, SK-BR-3, T-47D, ZR-75-1, and A549 cells were grown in MEM supplemented with 10% FBS, 25 mM HEPES buffer (pH 7.4), penicillin (100 U/mL), and streptomycin (100 μg/mL). The H520, DU145, and PC-3 cell lines were grown in RPMI-1640 supplemented with 10% FBS, 25 mM HEPES buffer (pH 7.4), penicillin (100 U/mL), and streptomycin (100 μg/mL). All cell lines were maintained at 37° C. in a humidified, 5% CO2 atmosphere.
(§2) Cells were cultured at a density of 2-3.5×10^3 cells per well in flat bottomed 96-well plates in 100 μL of complete growth medium and incubated for 2 days to reach ˜50% confluence. The cells were then treated with solvent or the appropriate drugs (CDDP stock was dissolved in 0.15 M NaCl, carboplatin stock was dissolved in 5% glucose, synthesized Pt(IV) complexes were dissolved in DMSO) for 1 hour, washed three times with 100 μL PBS, and incubated in 100 μL of fresh medium. After 2 days, the medium was replaced with 120 μL of medium containing CellTiter 96® Aqueous One Solution Reagent (MTS reagent) (Promega, Madison, Wis.). The cells were incubated at 37° C. for 4 hours and the cell viability was determined by measuring the absorbance at 490 nm using a Tecan Infinite M1000 microplate reader. The 48 h treatment was done in a similar manner, except the cells were not washed after treatment and the MTS reagent was immediately added. Viability of treated groups was calculated as a percent of control and graphed with GraphPad Prism.
(§3) The anti-proliferative activities of Pt(IV) complexes were determined in two lung (A549 and H520), two prostate (DU145 and PC-3), and six breast (HCC38, MCF-7, MDA-MB-231, SK-BR-3, T-47D, and ZR-75-1) cancer cell lines. The cells were treated with increasing concentrations of cisplatin (CDDP), carboplatin, or the Pt(IV) complexes for 1 or 48 hours, and the viability was measured using an MTS colorimetric cell proliferation assay. Graphs of the results are shown for DU145 (FIG. 8A), PC-3 (FIG. 8B), SK-BR-3 (FIG. 8C), ZR-75-1 (FIG. 8D), A549 (FIG. 8E), and MCF-7 (FIG. 8F).

[2] = test system: A549 lung cancer cells; experiment: MTS cell viability assay, A549; type: cell-based, human; conditions: read-out: EC50 (effective concentration that resulted in 50% cell viability)
Description: as §1, §2, §3

[3] = test system: SK-BR-3 breast cancer cells; experiment: MTS cell viability assay, SK-BR-3; type: cell-based, human; conditions: read-out: EC50 (effective concentration that resulted in 50% cell viability)
Description: as §1, §2, §3
(§4) The anti-proliferative activities of certain Pt(II) complexes were determined in DU145, PC-3, and SK-BR-3 cells. The cells were treated with increasing concentrations of cisplatin (CDDP) or the Pt(II) complexes for 1 or 48 hours, and the viability was measured using an MTS colorimetric cell proliferation assay.

[4] = test system: PC-3 prostate cancer cells; experiment: MTS cell viability assay, PC-3; type: cell-based, human; conditions: read-out: EC50 (effective concentration that resulted in 50% cell viability)
Description: as §1, §2, §3, §4

[5] = test system: ZR-75-1 breast cancer cells; experiment: MTS cell viability assay, ZR-75-1; type: cell-based, human; conditions: read-out: EC50 (effective concentration that resulted in 50% cell viability)
Description: as §1, §2, §3

[6] = test system: H520 lung cancer cells; experiment: MTS cell viability assay, H520; type: cell-based, human; conditions: read-out: EC50 (effective concentration that resulted in 50% cell viability)
Description: as §1, §2, §3

[7] = test system: DU145 prostate cancer cells; type: cell-based, human; conditions: read-out: EC50 (effective concentration that resulted in 50% cell viability)
Description: as §1, §2, §3, §4

[8] = test system: MDA-MB-231 breast cancer cells; experiment: MTS cell viability assay, MDA-MB-231; type: cell-based, human; conditions: read-out: EC50 (effective concentration that resulted in 50% cell viability)
Description: as §1, §2, §3

[9] = test system: MCF-7 breast cancer cells; experiment: MTS cell viability assay, MCF-7; type: cell-based, human; conditions: read-out: EC50 (effective concentration that resulted in 50% cell viability)
Description: as §1, §2, §3

[10] = test system: HCC38 breast cancer cells; experiment: MTS cell viability assay, HCC38; type: cell-based, human; conditions: read-out: EC50 (effective concentration that resulted in 50% cell viability)
Description: as §1, §2, §3

[11] = Stability of stock solution in DMSO or ethanol; type: physicochemical; conditions: stock solution made in DMSO or ethanol
Description: (§5) It should be noted that while the solubility of the Pt(IV) complexes in organic solvents were increased compared to their Pt(II) precursors, they were still poorly soluble in water. Thus, Pt(IV)-1C to Pt(IV)-3C were limited to a highest concentration of 100 μM. […] Testing of Pt(IV)4C therefore was limited to 25 μM.

[12] = Maximum tolerated dose study in a mouse model; type: in vivo; conditions: intraperitoneal administration, 12.5 mg/kg/day for three days
Description: As described herein, the platinum complexes provided herein can be used to reduce the viability of cancer cells. […] One of these compounds, Pt(II)-4C, was tested in vivo in a mouse model to determine the maximum tolerated dose. […] Here, a series of Pt(IV) derivatives having improved solubility in DMSO and, in some instances, increased activity compared to their Pt(II) counterparts is described.

[13] = Solubility in water and culture medium; type: physicochemical; conditions: water
Description: as §5

[14] = Solubility in DMSO and common organic solvents; type: physicochemical
Description: Coordination of the axial ligands to the Pt center improved the solubility of the complexes in common organic solvents. DMSO solutions of the Pt(IV) complexes with concentrations of 10 mM or higher were obtainable, whereas the Pt(II) can only be made at the highest concentration of 5 mM.

[Pt(IV)Cl2(OAc)2(4,4′-dioctyloxy-2,2′-bipyridine)] [Pt(IV)-8C]
EC50 ([1]; 1 h treatment, Table 3, read-out: EC50 (effective concentration that resulted in 50% cell viability)): 1.5 ± 0.5 µM | EC50 ([1]; 48 h, Table 5, read-out: EC50 (effective concentration that resulted in 50% cell viability)): 0.25 µM | EC50 ([2]; A549, 1 h treatment, Table 3): 7 ± 0.4 µM | EC50 ([2]; A549, 48 h, Table 5): 3 ± 0.5 µM | EC50 ([3]; SK-BR-3, 1 h treatment, Table 3): 0.33 ± 0.05 µM | EC50 ([3]; SK-BR-3, 48 h, Table 5): 0.22 ± 0.03 µM | EC50 ([4]; PC-3, 1 h treatment, Table 3): 1.2 ± 0.5 µM | EC50 ([4]; PC-3, 48 h, Table 5): 0.11 ± 0.02 µM | EC50 ([5]; ZR-75-1, 1 h treatment, Table 3): 3 ± 1 µM | EC50 ([5]; ZR-75-1, 48 h, Table 5): 1.3 ± 0.1 µM | EC50 ([6]; H520, 1 h treatment, Table 3): 7 ± 5 µM | EC50 ([6]; H520, 48 h, Table 5): 1.2 ± 0.6 µM | EC50 ([7]; DU145, 1 h treatment, Table 3): 0.7 ± 0.3 µM | EC50 ([7]; DU145, 48 h, Table 5): 0.2 ± 0.1 µM | EC50 ([8]; MDA-MB-231, 1 h treatment, Table 3): 2.1 ± 0.2 µM | EC50 ([8]; MDA-MB-231, 48 h, Table 5): 0.9 ± 0.3 µM | EC50 ([9]; MCF-7, 1 h treatment, Table 3): 4 ± 1 µM | EC50 ([9]; MCF-7, 48 h, Table 5): 1.3 ± 0.3 µM | EC50 ([10]; HCC38, 1 h treatment, Table 3): 3 ± 0.6 µM | EC50 ([10]; HCC38, 48 h, Table 5): 1.6 ± 0.3 µM | stability of the structure in stock solution [11]: structure is stable

CCCCOc1ccnc(-c2cc(OCCCC)ccn2)c1.[Cl][Pt][Cl] [Pt(II)-4C]
EC50 ([1]; 1 h treatment, Table 2, read-out: EC50 (effective concentration that resulted in 50% cell viability)): 12 ± 7 µM | EC50 ([1]; 48 h treatment, Table 4, read-out: EC50 (effective concentration that resulted in 50% cell viability)): 2.3 ± 0.4 µM | EC50 ([2]; A549, 1 h treatment, Table 2): 17 ± 1 µM | EC50 ([2]; A549, 48 h treatment, Table 4): 15.4 ± 0.5 µM | EC50 ([3]; SK-BR-3, 1 h treatment, Table 2): 5 ± 4 µM | EC50 ([3]; SK-BR-3, 48 h treatment, Table 4): 2.1 ± 0.2 µM | survival of the animals [12]: survived for seven days | EC50 ([4]; PC-3, 1 h treatment, Table 2): 11 ± 2 µM | EC50 ([4]; PC-3, 48 h treatment, Table 4): 7.4 ± 0.5 µM | solubility in water (in words) [13]: poor solubility in water | EC50 ([5]; ZR-75-1, 1 h treatment, Table 2): 21 ± 2 µM | EC50 ([5]; ZR-75-1, 48 h treatment, Table 4): 6 ± 0.9 µM | EC50 ([6]; H520, 1 h treatment, Table 2): 20 ± 1 µM | EC50 ([6]; H520, 48 h treatment, Table 4): 14 ± 6 µM | EC50 ([7]; DU145, 1 h treatment, Table 2): 12 ± 8 µM | EC50 ([7]; DU145, 48 h treatment, Table 4): 5 ± 2 µM | EC50 ([8]; MDA-MB-231, 1 h treatment, Table 2): 4 ± 3 µM | EC50 ([8]; MDA-MB-231, 48 h treatment, Table 4): 2.4 ± 0.6 µM | EC50 ([9]; MCF-7, 1 h treatment, Table 2): 22 ± 2 µM | EC50 ([9]; MCF-7, 48 h treatment, Table 4): 13 ± 1 µM | solubility in DMSO and other common organic solvents (in words) [14]: only moderate solubility in common organic solvents | EC50 ([10]; HCC38, 1 h treatment, Table 2): 12 ± 6 µM | EC50 ([10]; HCC38, 48 h treatment, Table 4): 7.3 ± 3 µM
